pEC50: −log10 of the molar value. Several values for one entry are separate records, joined by “and”; a condition that tells them apart may be missing. Equal entries are not always repeated. Where two headings read alike, the source gives them in different places.
Legend:
P. falciparum = details: Table 3 section B, high throughput screen [27, 28], cited from earlier work; for pEC50: read-out: ED50 in 3D7
[1] = tested on: chloroquine-sensitive strain 3D7 of P. falciparum; assay: P. falciparum growth inhibition in culture, strain 3D7; format: cell-based, Plasmodium falciparum; details: for pEC50: Table 3 section A, mean of at least two measurements, read-out: ED50 in 3D7; for experimentally determined to work / EC50: Table 5; for experimentally determined to work: P. falciparum ED50 in 3D7 and K1; for EC50: read-out: ED50 (μM) in 3D7; for result of the 16 tested inhibitors in words (binding): summary of Table 5
[2] = tested on: chloroquine-resistant strain K1 of P. falciparum; assay: P. falciparum growth inhibition in culture, strain K1; format: cell-based, Plasmodium falciparum; details: for pEC50: Table 3 section A, mean of at least two measurements, read-out: ED50 in K1; for EC50: Table 5, read-out: ED50 (μM) in K1
Tat = Tat (Human immunodeficiency virus type 1 group M subtype B, UniProt P04608); details: HIV-1 target Tat; read-out: Inhibitory effect (uM), IC50, Tat; cited from earlier work
KSHV protease = KSHV protease (Human herpesvirus 8 type P, UniProt Q2HRB6); assay: Surface Plasmon Resonance, KSHV protease; format: binding; design: herpes simplex virus (HSV) proteases (including HSV2, VZV, EBV, CMV, and KSHV); details: SPR, FIG. 4
Description: (§1) Four inhibitors were evaluated; our top ranking one (TMPyP4) clearly binds to all three proteases as predicted. […] A third inhibitor, GW8510, predicted to bind fails (i.e., a misprediction). […] Our inhibitor prediction is completely consistent with the observed experimental data which is verified further by cell culture studies in FIG. 4 and compared to existing antiherpes drugs.

HSV protease = assay: Surface Plasmon Resonance, HSV protease; format: binding; details: SPR, FIG. 4
Description: as §1

CMV protease = CMV protease (Human cytomegalovirus, UniProt P16753); assay: Surface Plasmon Resonance, CMV protease; format: binding; design: herpes simplex virus (HSV) proteases (including HSV2, VZV, EBV, CMV, and KSHV); details: SPR, FIG. 4
Description: as §1

Chain of KSHV protease (Q2HRB6 1-230): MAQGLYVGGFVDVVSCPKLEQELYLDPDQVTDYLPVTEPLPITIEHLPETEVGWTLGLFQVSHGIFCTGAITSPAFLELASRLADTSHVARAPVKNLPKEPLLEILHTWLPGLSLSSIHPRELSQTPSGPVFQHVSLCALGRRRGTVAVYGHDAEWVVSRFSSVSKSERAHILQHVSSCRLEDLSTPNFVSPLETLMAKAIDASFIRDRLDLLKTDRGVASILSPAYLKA
Chain of Tat (P04608 whole entry): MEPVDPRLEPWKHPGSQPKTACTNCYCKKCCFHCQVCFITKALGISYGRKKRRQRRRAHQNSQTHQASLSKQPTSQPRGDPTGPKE
Chain of CMV protease (P16753 1-256): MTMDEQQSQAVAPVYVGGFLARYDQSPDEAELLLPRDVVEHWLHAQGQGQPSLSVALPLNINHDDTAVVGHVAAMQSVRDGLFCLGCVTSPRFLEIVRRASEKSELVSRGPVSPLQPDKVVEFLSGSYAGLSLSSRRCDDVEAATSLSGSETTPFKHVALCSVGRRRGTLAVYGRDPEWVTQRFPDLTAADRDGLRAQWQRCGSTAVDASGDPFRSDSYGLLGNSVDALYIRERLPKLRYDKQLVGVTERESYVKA

COc1cccc2c1C(=O)c1c(O)c3c(c(O)c1C2=O)C[C@@](O)(C(=O)CO)C[C@@H]3O[C@H]1C[C@H](N)[C@@H](O)[C@H](C)O1 [Epirubicin]
% Inhibition at 10 μM in (P. falciparum): 98.4%

Cc1c[nH]c(/C=C2\C(=O)Nc3ccccc32)c1CCC(=O)O [SU5402]
pEC50 [1]: < 4.40
experimentally determined to work [1]: N

CC[C@H](CO)Nc1nc(NCc2ccccc2)c2ncn(C(C)C)c2n1 [Roscovitine]
experimentally determined to work [1]: N

Cc1nc2n(c(=O)c1CCN1CCC(c3noc4cc(F)ccc34)CC1)CCCC2 [Risperidone]
% Inhibition at 10 μM in (P. falciparum): 67.5%

COc1cccc2c1C(=O)c1c(O)c3c(c(O)c1C2=O)C[C@@](O)(C(C)=O)C[C@@H]3O[C@H]1C[C@H](N)[C@H](O)[C@H](C)O1 [Daunorubicin]
pEC50 ([2]; Plasmodium falciparum, K1): > 6.00
EC50 ([2]; Plasmodium falciparum, K1): < 1 µM
pEC50 ([1]; Plasmodium falciparum, 3D7): 6.89
EC50 ([1]; Plasmodium falciparum, 3D7): 0.125 µM
experimentally determined to work [1]: Y (Y—yes (<=1uM ED50))
result of the 16 tested inhibitors in words (binding) [1]: very strong binding
% Inhibition at 10 μM in (P. falciparum): 99.6%

Bisindolylmaleimide VII
pEC50 [2]: 5.00 to 6.00
EC50 [2]: 1 to 10 µM
pEC50 [1]: 5.00 to 6.00
experimentally determined to work [1]: N
EC50 [1]: 1 to 10 µM

O=C1c2ccc3c4ccc5c6c(ccc(c7ccc(c2c37)C(=O)N1CCN1CCCCC1)c64)C(=O)N(CCN1CCCCC1)C5=O [PIPER]
pEC50 [2]: 4.40 to 5.00
EC50 [2]: 10 to 40 µM
pEC50 [1]: 4.40 to 5.00
experimentally determined to work [1]: N
EC50 [1]: 10 to 40 µM

CCC(C)c1c(O[C@H]2C[C@@H](O[C@H]3C[C@@H](O)[C@H](O)[C@@H](C)O3)[C@H](O)[C@@H](C)O2)cc2cc3c(c(O)c2c1O)C(=O)C(O[C@H]1C[C@@H](O[C@H]2C[C@@H](O[C@H]4C[C@@H](O[C@H]5C[C@@H](O)[C@H](O)[C@@H](C)O5)[C@H](O)[C@@H](C)O4)[C@@H](OC(C)=O)[C@@H](C)O2)[C@H](O)[C@@H](C)O1)C(C(OC)C(=O)C(O)C(C)O)C3 (stereo partly drawn) [Durhamycin A]
IC50 (Tat): 0.0048 µM

CC1(C)S[C@@H]2[C@H](NC(=O)[C@H](NC(=O)N3CCNC3=O)c3ccccc3)C(=O)N2[C@H]1C(=O)O [Azlocillin]
pEC50 (P. falciparum): 5.82

CC[C@@]1(O)C(=O)OCc2c1cc1n(c2=O)Cc2cc3c(CN(C)C)c(O)ccc3nc2-1 [Topotecan]
% Inhibition at 10 μM in (P. falciparum): 80.1%

Cl.Cn1cc(C2=C(c3c4n(c5ccccc35)CCC(CN)C4)C(=O)NC2=O)c2ccccc21 (stereo not drawn) [Bisindolylmaleimide X]
pEC50 [2]: 5.00 to 6.00
EC50 [2]: 1 to 10 µM
pEC50 [1]: 5.00 to 6.00
experimentally determined to work [1]: N
EC50 [1]: 1 to 10 µM

CN(C)S(=O)(=O)c1ccc2c(c1)/C(=C/c1cc3c([nH]1)CCCC3)C(=O)N2 [SU6656]
disassociation constant (Kd), KSHV protease (KSHV protease): verified to not bind
disassociation constant (Kd), HSV protease (HSV protease): verified to not bind
pEC50 [1]: < 4.40
experimentally determined to work [1]: N
EC50 [1]: 10 µM
disassociation constant (Kd), CMV protease (CMV protease): verified to not bind

Cc1ccc(NC(=O)c2ccc(CN3CCN(C)CC3)cc2)cc1Nc1nccc(-c2cccnc2)n1 [STI-571, Imatinib]
result of the 16 tested inhibitors in words (binding) [1]: moderate binding

Oc1ccc(Cc2nc3c(Cc4ccccc4)nc(-c4ccc(O)cc4)cn3c2O)cc1 [Coelenterazine]
pEC50 ([2]; Plasmodium falciparum, K1): 5.00 to 6.00
EC50 ([2]; Plasmodium falciparum, K1): 1 to 10 µM
pEC50 ([1]; Plasmodium falciparum, 3D7): 4.40 to 5.00
EC50 ([1]; Plasmodium falciparum, 3D7): 10 to 40 µM
experimentally determined to work [1]: N

CN1C[C@H](C(=O)N[C@]2(C)O[C@@]3(O)[C@@H]4CCCN4C(=O)[C@H](Cc4ccccc4)N3C2=O)C[C@@H]2c3cccc4[nH]cc(c34)C[C@H]21 [Dihydroergotamine]
% Inhibition at 10 μM in (P. falciparum): 88.1%
pEC50 (P. falciparum): 5.40 and 5.52

O=C(O)c1cc(/N=N/c2ccc(S(=O)(=O)Nc3ccccn3)cc2)ccc1O [Sulfasalazine]
pEC50 ([2]; Plasmodium falciparum, K1): < 4.40
EC50 ([2]; Plasmodium falciparum, K1): > 40 µM
pEC50 ([1]; Plasmodium falciparum, 3D7): < 4.40
EC50 ([1]; Plasmodium falciparum, 3D7): > 40 µM
experimentally determined to work [1]: N

CN1C[C@H](CNC(=O)OCc2ccccc2)C[C@@H]2c3cccc4c3c(cn4C)C[C@H]21 [Metergoline]
% Inhibition at 10 μM in (P. falciparum): 85.9%
pEC50 (P. falciparum): 5.27

— patent US20120142623A1, “Compositions And Methods For Predicting Inhibitors Of Protein Targets” (priority 2006, published 2012)
